Assay: Short term HFD mouse model, plasma and liver exposure
Assay type: in vivo
Conditions: three oral doses of 20 mg/kg, HFD C57BL/6J mice; for Kp at 4 h: mouse, liver/plasma, read-out: liver/plasma ratio, 4 h; for liver exposure, 4 h / plasma exposure, 4 h: 4 h after final treatment
Method: Short Term HFD Mouse Model:
The in vivo transcriptional regulation of several LXR target genes by LXR modulators was assessed in mice.
For this, C57BL/6J were purchased from Elevage Janvier (Rennes, France) at the age of 8 weeks. After an acclimation period of two weeks, animals were preferred on a high fat diet (HFD) (Ssniff Spezialdiaten GmbH, Germany, Surwit EF D12330 mod, Cat. No. E15771-34), with 60 kcal % from fat plus 1% (w/w) extra cholesterol (Sigma-Aldrich, St. Louis, Mo.) for 5 days. Animals were maintained on this diet during treatment with LXR modulators. The test compounds were formulated in 0.5% hydroxypropylmethylcellulose (HPMC) and administered in three doses (20 mg/kg each) by oral gavage according to the following schedule: on day one, animals received treatment in the morning and the evening (ca. 17:00), on day two animals received the final treatment in the morning after a 4 h fast and were sacrificed 4 h thereafter. Animal work was conducted according to the national guidelines for animal care in Germany.
Upon termination, liver was collected, dipped in ice cold PBS for 30 seconds and cut into appropriate pieces. Pieces were snap frozen in liquid nitrogen and stored at −80° C. For the clinical chemistry analysis from plasma, alanine aminotransferase (ALT, IU/mL), cholesterol (CHOL, mg/dL) and triglycerides (TG, mg/dL) were determined using a fully-automated bench top analyzer (Respons®910, DiaSys Greiner GmbH, Flacht, Germany) with system kits provided by the manufacturer.

SMILES	Kp at 4 h	liver exposure, 4 h [µM]	plasma exposure, 4 h [nM]
Cc1cc(C)c(S(=O)(=O)N(Cc2ccc(C(F)(F)F)o2)Cc2ccc(-c3cccc(C(C)(C)C(=O)O)c3)cc2Cl)c(C)c1 [10/5]	33.3	4.372	131
Cc1ccc2ccccc2c1S(=O)(=O)N(Cc1ccc(-c2cccc(C(C)(C)C(=O)O)c2)cc1)Cc1ccc(C(F)(F)F)o1 [Example 24, 2-Methyl-2-(4′-(((2-methyl-N-((5-(trifluoromethyl)furan-2-yl)methyl)naphthalene)-1-sulfonamido)methyl)-[1,1′-biphenyl]-3-yl)propanoic acid]	52.4	5.359	102

Reference: US20200115357A1, “LIVER X RECEPTORS (LXR) MODULATORS” (Phenex-FXR GmbH, priority 2017, published 2020)
